Measured values from US20250084078A1, “FUSED RING-SUBSTITUTED SIX-MEMBERED HETEROCYCLIC COMPOUND, AND PREPARATION METHOD THEREFOR AND USE THEREOF” (GENFLEFT THERAPEUTICS (SHANGHAI) INC., priority 2022, published 2025).

Key:
HPK1 [1] = molecular target: HPK1 (Homo sapiens, UniProt Q92918); assay: SLP76 phosphorylation assay (intracellular HPK1 inhibitory activity, p-SLP76 S376 ELISA in Jurkat cells); conditions: p-SLP76 IC50, Jurkat, Clone E6-1 cells; 1 h compound pre-incubation; anti-CD3 beads stimulation 20 min; Phospho-SLP-76 (Ser376) ELISA
Target sequence in this assay (Q92918 whole entry): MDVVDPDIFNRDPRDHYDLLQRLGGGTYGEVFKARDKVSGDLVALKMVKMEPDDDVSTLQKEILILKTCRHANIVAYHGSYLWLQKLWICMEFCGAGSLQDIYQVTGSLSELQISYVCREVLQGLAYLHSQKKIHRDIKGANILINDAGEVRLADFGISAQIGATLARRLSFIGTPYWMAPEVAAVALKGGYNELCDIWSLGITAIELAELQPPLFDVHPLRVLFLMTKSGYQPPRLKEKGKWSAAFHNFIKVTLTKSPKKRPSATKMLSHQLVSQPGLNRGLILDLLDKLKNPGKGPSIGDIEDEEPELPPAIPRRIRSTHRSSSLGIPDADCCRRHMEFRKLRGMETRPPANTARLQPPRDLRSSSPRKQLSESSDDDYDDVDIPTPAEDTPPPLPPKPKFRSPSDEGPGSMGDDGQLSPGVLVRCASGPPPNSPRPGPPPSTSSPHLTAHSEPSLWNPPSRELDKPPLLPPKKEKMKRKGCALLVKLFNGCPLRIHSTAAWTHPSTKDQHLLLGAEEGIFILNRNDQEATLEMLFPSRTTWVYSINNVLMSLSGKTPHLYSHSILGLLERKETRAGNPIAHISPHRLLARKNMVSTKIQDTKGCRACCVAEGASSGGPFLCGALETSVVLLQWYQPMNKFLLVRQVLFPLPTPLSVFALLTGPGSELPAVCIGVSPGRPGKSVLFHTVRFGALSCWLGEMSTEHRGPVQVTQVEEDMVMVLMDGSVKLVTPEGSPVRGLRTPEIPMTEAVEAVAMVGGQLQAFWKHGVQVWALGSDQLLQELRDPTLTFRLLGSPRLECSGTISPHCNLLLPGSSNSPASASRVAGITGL

HPK1 [2] = molecular target: T1, HPK1 (Homo sapiens, UniProt Q92918); assay: HPK1 kinase activity assay (ADP-Glo); conditions: HPK1 Kinase activity IC50, ADP-Glo; 1 nM HPK1, 10 μM ATP, 0.1 μg/μL MBP
T1 sequence (Q92918 1-346): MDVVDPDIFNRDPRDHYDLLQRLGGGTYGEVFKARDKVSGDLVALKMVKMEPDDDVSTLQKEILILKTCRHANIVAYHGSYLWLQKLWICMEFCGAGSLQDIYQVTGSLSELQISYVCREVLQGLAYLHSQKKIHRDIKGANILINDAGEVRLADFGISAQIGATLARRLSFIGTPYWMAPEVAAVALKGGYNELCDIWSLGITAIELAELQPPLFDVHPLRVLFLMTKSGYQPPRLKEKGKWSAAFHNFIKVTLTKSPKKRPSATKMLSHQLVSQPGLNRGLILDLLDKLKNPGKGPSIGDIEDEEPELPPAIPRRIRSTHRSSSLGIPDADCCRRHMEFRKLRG
Experimental: Preparation of buffer: Ix reaction buffer (40 mM Tris-HCl, 20 mM MgCl2, 0.01% Brij35, 50 μM DTT, 0.1 mg/ml BSA) was prepared using sterile water, which was prepared and used on the day of the experiment.
Preparation of 1000× drug stock plate: a 1000× compound stock plate was prepared. […] The compound stock plate was sealed with a sealing film and stored in a −20° C. refrigerator for later use.
Compound preparation and dosing: the 1000× drug stock plate was taken and melted at room temperature in the dark. Then 5× drug intermediate plate was prepared using reaction buffer and mixed well. 2 μL was transferred from the 5× drug intermediate plate into a 384-well plate, and negative control well and positive control well (in which 2 μL reaction buffer containing 0.5% DMSO was added) were set. Each point was repeated twice.
Preparation and incubation of reaction mixture: HPK1 protein was diluted to a 2.5× working solution with reaction buffer. 4 μL 2.5×HPK1 protein was added to each well containing test compound and positive control well, and 4 μL of reaction buffer without HPK1 protein was added to the negative control well. The obtained mixture was centrifuged at 1000 rpm for 1 min and then incubated in a 20° C. incubator for 15 min. A 2.5× mixed working solution of MBP protein and ATP was prepared with reaction buffer at concentrations of 0.5 μg/μL and 50 μM, respectively. 4 μL of the mixed working solution of MBP and ATP was added to each well, centrifuged at 1000 rpm for 1 min, and then incubated in a 20° C. incubator for 90 min.
ADP-Glo detection and reading plate: 10 μl ADP-Glo was added to each well of the test plate. The resulting mixture was centrifuged at 1000 rpm for 1 min and incubated in a 20° C. incubator for 60 min. Then 10 μL of the final incubation solution was transferred from the test plate to a new 384-well plate. 10 μL of kinase detection reagent was added to each well, centrifuged at 400 g for 1 min, and incubated in a 20° C. incubator for 60 min Chemiluminescent signals were read by a microplate reader.

SMILES | IC50 (HPK1 [1]) [nM] | IC50 (HPK1 [2]) [nM]
Cc1c[nH]c2ncc(-c3cc4c(c([C@@H]5COCCN5)c3)CCN(C(=O)C3CCOCC3)C4)cc12 [Compound Z377, (R)-(7-(3-methyl-1H-pyrrolo[2,3-b]pyridin-5-yl)-5-(morpholin-3-yl)-3,4-dihydroisoquinolin-2(1H)-yl)(tetrahydro-2H-pyran-4-yl)methanone] | 190 | 0.28
CCc1c(Cl)[nH]c2ncc(-c3cc4c(c([C@@H]5CCCN5)c3)CN(C(=O)COC)CC4)cc12 [Compound Z411] | 428 | 1.12
CC(C)c1c[nH]c2ncc(-c3cc4c(c([C@@H]5CCCN5)c3)CN(C(=O)C(C)(C)O)CC4)cc12 [Compound Z416, (S)-2-hydroxy-1-(6-(3-isopropyl-1H-pyrrolo[2,3-b]pyridin-5-yl)-8-(pyrrolidin-2-yl)-3,4-dihydroisoquinolin-2(1H)-yl)-2-methylpropan-1-one] | 63.1 | 0.29
CC(C)c1c[nH]c2ncc(-c3cc4c(c([C@@H]5COCCN5)c3)CN(C(=O)C(C)(C)O)CC4)cc12 [Compound Z419, (R)-2-hydroxy-1-(6-(3-isopropyl-1H-pyrrolo[2,3-b]pyridin-5-yl)-8-(morpholin-3-yl)-3,4-dihydroisoquinolin-2(1H)-yl)-2-methylpropan-1-one] | 74.2 | 0.11
CCc1c(Cl)[nH]c2ncc(-c3cc4c(c([C@@H]5COCCN5)c3)CN(C(=O)C(C)(C)O)CC4)cc12 [Compound Z422, (R)-1-(6-(2-chloro-3-ethyl-1H-pyrrolo[2,3-b]pyridin-5-yl)-8-(morpholin-3-yl)-3,4-dihydroisoquinolin-2(1H)-yl)-2-hydroxy-2-methylpropan-1-one] | 349 | 0.72
CC(C)(O)C(=O)N1CCc2cc(-c3cnc4[nH]cc(F)c4c3)cc([C@@H]3COCCN3)c2C1 [Compound Z445, (R)-1-(6-(3-fluoro-1H-pyrrolo[2,3-b]pyridin-5-yl)-8-(morpholin-3-yl)-3,4-dihydroisoquinolin-2(1H)-yl)-2-hydroxy-2-methylpropan-1-one] | 253 | 0.85
Cc1c[nH]c2ncc(-c3cc4c(c([C@@H]5COCCN5)c3)CCN(C(=O)[C@H]3CCOC3)C4)cc12 [Compound Z446, (7-(3-methyl-1H-pyrrolo[2,3-b]pyridin-5-yl)-5-((R)-morpholin-3-yl)-3,4-dihydroisoquinolin-2(1H)-yl)((S)-tetrahydrofuran-3-yl)methanone] | 196 | 0.83
O=C(N1CCc2cc(-c3cnc4[nH]cc(Cl)c4c3)cc([C@@H]3COCCN3)c2C1)N1CC2CCC(C1)O2 [Compound Z447, (8-oxa-3-azabicyclo[3.2.1]octan-3-yl)(6-(3-chloro-1H-pyrrolo[2,3-b]pyridin-5-yl)-8-((R)-morpholin-3-yl)-3,4-dihydroisoquinolin-2(1H)-yl)methanone] | 44.8 | 0.18
CCc1c[nH]c2ncc(-c3cc4c(c([C@@H]5COCCN5)c3)CN(C(=O)N3CCOCC3)CC4)cc12 [Compound Z448, (R)-(6-(3-ethyl-1H-pyrrolo[2,3-b]pyridin-5-yl)-8-(morpholin-3-yl)-3,4-dihydroisoquinolin-2(1H)-yl)(morpholine)methanone] | 120 | 0.29
Cc1c[nH]c2ncc(-c3cc4c(c([C@@H]5COCCN5)c3)CN(C(=O)C3(O)CCOCC3)CC4)cc12 [Compound Z450] | 158 | 0.22
Cc1c[nH]c2ncc(-c3cc4c(c([C@@H]5COCCN5)c3)CN(C(=O)N3CC5CCC(C3)O5)CC4)cc12 [Compound Z451, (8-oxa-3-azabicyclo[3.2.1]octan-3-yl)(6-(3-methyl-1H-pyrrolo[2,3-b]pyridin-5-yl)-8-((R)-morpholin-3-yl)-3,4-dihydroisoquinolin-2(1H)-yl)methanone] | 44.2 | 0.11
Cc1c[nH]c2ncc(-c3cc4c(c([C@@H]5COCCN5)c3)CN(C(=O)N3CC5CCC3CO5)CC4)cc12 (stereo partly drawn) [Compound Z457, (2-oxa-5-azabicyclo[2.2.2]octan-5-yl)(6-(3-methyl-1H-pyrrolo[2,3-b]pyridin-5-yl)-8-((R)-morpholin-3-yl)-3,4-dihydroisoquinolin-2(1H)-yl)methanone] | 60.9 | 0.14
Cc1c[nH]c2ncc(-c3cc4c(c([C@@H]5COCCN5)c3)CN(C(=O)[C@H]3CCOC3)CC4)cc12 [Compound Z469, [6-(3-methyl-1H-pyrrolidine[2,3-b]pyridin-5-yl)-8-[(R)-morpholin-3-yl]-3,4-dihydroisoquinolin-2(1H)-yl]-[(S)-tetrahydrofuran-3-yl]methanone] | 125 | 0.06
CC(C)(O)C(=O)N1CCc2cc(-c3cnc4[nH]cc(C(F)(F)F)c4c3)cc([C@@H]3COCCN3)c2C1 [Compound Z473, (R)-2-hydroxy-2-methyl-1-(8-(morpholin-3-yl)-6-(3-(trifluoromethyl)-1H-pyrrolo[2,3-b]pyridin-5-yl)-3,4-dihydroisoquinolin-2(1H)-yl)propan-1-one] | 143 | 0.24
CCc1c[nH]c2ncc(-c3cc4c(c([C@@H]5COCCN5)c3)CN(C(=O)C(C)(C)O)CC4)cc12 [Compound Z476, (R)-1-(6-(3-ethyl-1H-pyrrolo[2,3-b]pyridin-5-yl)-8-(morpholin-3-yl)-3,4-dihydroisoquinolin-2(1H)-yl)-2-hydroxy-2-methylpropan-1-one] | 67 | 0.21
Cc1c[nH]c2ncc(-c3cc4c(c([C@@H]5COCCN5)c3)CN(C(=O)N3CC[C@H](F)C3)CC4)cc12 [Compound Z488, ((S)-3-fluoropyrrolidin-1-yl)(6-(3-methyl-1H-pyrrolo[2,3-b]pyridin-5-yl)-8-((R)-morpholin-3-yl)-3,4-dihydroisoquinolin-2(1H)-yl)methanone] | 150 | 0.21
O=C(N1CCc2cc(-c3cnc4[nH]cc(Cl)c4c3)cc([C@@H]3COCCN3)c2C1)N1C2CCC1COC2 [Compound Z489, (3-oxa-8-azabicyclo[3.2.1]octan-8-yl)(6-(3-chloro-1H-pyrrolo[2,3-b]pyridin-5-yl)-8-((R)-morpholin-3-yl)-3,4-dihydroisoquinolin-2(1H)-yl)methanone] | 82.1 | 0.21
Cc1c[nH]c2ncc(-c3cc4c(c([C@@H]5COCCN5)c3)CN(C(=O)N3C5CCC3COC5)CC4)cc12 [Compound Z492, (3-oxa-8-azabicyclo[3.2.1]octan-8-yl)(6-(3-methyl-1H-pyrrolo[2,3-b]pyridin-5-yl)-8-((R)-morpholin-3-yl)-3,4-dihydroisoquinolin-2(1H)-yl)methanone] | 95.7 | 0.18
Cc1c[nH]c2ncc(-c3cc4c(c([C@@H]5CCCN5)c3)CN(C(=O)c3cc(C5CC5)nn3C)CC4)cc12 [Compound Z493, (S)-(3-cyclopropyl-1-methyl-1H-pyrazol-5-yl)-[6-(3-methyl-1H-pyrrolo[2,3-b]pyridin-5-yl)-8-[pyrrolidin-5-yl]-3,4-dihydroisoquinolin-2(1H)-yl]methanone] | 295 | 0.41
Cc1c[nH]c2ncc(-c3cc4c(c([C@@H]5CCCN5)c3)CN(C(=O)c3ccn(C5CC5)n3)CC4)cc12 [Compound Z494, (S)-(1-cyclopropyl-1H-pyrazol-3-yl)(6-(3-methyl-1H-pyrrolo[2,3-b]pyridin-5-yl)-8-(pyrrolidin-2-yl)-3,4-dihydroisoquinolin-2(1H)-yl)methanone] | 453 | 0.81
CC(C)(O)C(=O)N1CCc2cc(-c3cnc4[nH]cc(Cl)c4c3)cc([C@@H]3CCCN3)c2C1 [Compound Z496] | 62.7 | 0.22
Cc1c[nH]c2ncc(-c3cc4c(c([C@@H]5CCCN5)c3)CN(C(=O)N3CCOC(C(F)(F)F)C3)CC4)cc12 (stereo partly drawn) [Compound Z497, [6-(3-methyl-1H-pyrrolo[2,3-b]pyridin-5-yl)-8-[(S)-pyrrolidin-2-yl]-3,4-dihydro-isoquinolin-2(1H)-yl]-[2-(trifluoromethyl)morpholin-4-yl]methanone] | 186 | 0.4
Cc1c[nH]c2ncc(-c3cc4c(c([C@@H]5COCCN5)c3)CN(C(=O)C(C)(C)O)CC4)nc12 [Compound Z507, (R)-1-(6-(7-methyl-5H-pyrrolo[2,3-b]pyrazin-2-yl)-8-(morpholin-3-yl)-3,4-dihydroisoquinolin-2(1H)-yl)-2-hydroxy-2-methylpropan-1-one] | 119 | 0.43
Cc1c[nH]c2ncc(-c3cc4c(c([C@@H]5COCCN5)c3)CN(C(=O)N3C[C@H](C)O[C@@H](C)C3)CC4)cc12 [Compound Z512, ((2S,6S)-2,6-dimethylmorpholine)(6-(3-methyl-1H-pyrrolo[2,3-b]pyridin-5-yl)-8-((R)-morpholin-3-yl)-3,4-dihydroisoquinolin-2-1H-yl)methanone] | 148 | 0.35
Cc1c[nH]c2ncc(-c3cc4c(c([C@@H]5COCCN5)c3)CN(C(=O)N3C[C@H]5C[C@@H]3CO5)CC4)cc12 [Compound Z518] | 130 | 0.22
CC(C)(O)C(=O)N1CCc2cc(-c3cnc4[nH]cc(C5CC5)c4c3)cc([C@@H]3COCCN3)c2C1 [Compound Z523, (R)-1-(6-(3-cyclopropyl-1H-pyrrolo[2,3-b]pyridin-5-yl)-8-(morpholin-3-yl)-3,4-dihydroisoquinolin-2(1H)-yl)-2-hydroxy-2-methylpropan-1-one] | 51.8 | 0.17
